Source: US9475779B2, “Substituted bicyclic dihydropyrimidinones and their use as inhibitors of neutrophil elastase activity” (priority 2014, dated 2016)
Values after ≈ are worked out from the molar mass of the structure shown. Read-outs that look alike come from different tables or passages of the source.

Key:
cytochrome P450 2C9 = cytochrome P450 2C9 (Homo sapiens (Human), UniProt P11712); assay: biochemical
cytochrome P450 2C8 = cytochrome P450 2C8 (Homo sapiens (Human), UniProt P10632); assay: biochemical
physchem = assay type: physicochemical; conditions: McIlvaine buffer pH 6.8 containing 2.5% DMSO, pH 6.8, aqueous buffer, kinetic from dmso stock, McIlvaine buffer pH 6.8, 2.5% DMSO, 24 h
neutrophil elastase [1] = biological target: T1, neutrophil elastase (Homo sapiens (Human), UniProt P08246); assay: biochemical
hERG potassium channel = hERG potassium channel (Homo sapiens (Human), UniProt Q12809); assay: in vitro
neutrophil elastase [2] = biological target: T1, neutrophil elastase; assay: biochemical; assay type: biochemical
Experimental: Human Neutrophil Elastase Assay
All other materials were of the highest grade commercially available.
The following buffers were used: Compound buffer: 100 mM Tris, 500 mM NaCl, adjusted to pH 7.5; Assay buffer: 100 mM Tris, 500 mM NaCl, adjusted to pH 7.5, containing 0.01% BSA.
Assay conditions: Test compounds were prediluted in DMSO and subsequently in compound buffer (5% DMSO final). […] After inactivation of the enzyme, fluorescence intensities were measured at 380 nm excitation and 460 nm emission wavelengths.
Each plate contains wells with a high value control (DMSO+enzyme+substrate) and wells with a low value control (DMSO+inactivated enzyme+substrate). IC50 values were estimated using a sigmoidal concentration response curve with variable slope. Means of low values were taken as 0%, means of high values as 100%.

cytochrome P450 2C19 = cytochrome P450 2C19 (Homo sapiens (Human), UniProt P33261); assay: biochemical
in vitro = in vitro ADME; conditions: human, pH 7.2, 37° C.; for Papp A→B at 10 μM: Caco-2, pH 7.2, Caco-2, apical-to-basal, read-out: PEAB; for Papp B→A at 10 μM: Caco-2, pH 7.2, Caco-2, basal-to-apical, read-out: PEBA
[3] = Metabolic stability with human liver microsomes; assay type: in vitro ADME; conditions: human, pooled human liver microsomes, pH 7.6, pooled human liver microsomes, 1 μM test compound, 37° C.; read-out: t1/2 INVITRO
human hepatocytes = assay: Metabolic stability with human hepatocytes; assay type: in vitro ADME; conditions: well stirred model
Experimental: Assay for the Determination of Metabolic Stability with Human Hepatocytes
The metabolic degradation of the test compound is assayed in a human hepatocyte suspension. Human hepatocytes (typically cryopreserved) are incubated in an appropriate buffer system (e.g. Dulbecco's modified eagle medium plus […]/500 mL, 2.5 mg insulin/500 mL and 3.75 mg/500 mL hydrocortison) containing 5% species serum. Following a (typically) 30 min preincubation in an incubator (37° C., 10% CO2), 5 μl of test compound solution (80 μM; from 2 mM stock solution in DMSO diluted 1:25 with medium) are added into 395 μl hepatocyte suspension (cell density in the range 0.25-5*10^6 cells/mL, typically 1*10^6 cells/mL; final concentration of test compound 1 μM, final DMSO concentration 0.05%). The cells are incubated for six hours (incubator, orbital shaker) and samples (25 μl) are taken at 0, 0.5, 1, 2, 4 and 6 hours. Samples are transferred into acetonitrile and pelleted by centrifugation (5 min). […] The decline of parent compound is analyzed by LC-MS/MS.
The intrinsic clearance CL_[…] is calculated as follows: CL_[…]=Dose/AUC=(C0/CD)/(AUD+clast/k)*1′000/60 (C0: initial concentration in the incubation […], CD: cell density of vital cells [10^6 cells/mL], AUD: area under the data [μM*h], clast: concentration of last data point [μM], k: slope of the regression line for parent decline [h^−1]) […]

Caco-2 cells = assay: in vitro; assay type: in vitro ADME; conditions: pH 7.2

Sequence of cytochrome P450 2C19 (P33261 whole entry, looked up): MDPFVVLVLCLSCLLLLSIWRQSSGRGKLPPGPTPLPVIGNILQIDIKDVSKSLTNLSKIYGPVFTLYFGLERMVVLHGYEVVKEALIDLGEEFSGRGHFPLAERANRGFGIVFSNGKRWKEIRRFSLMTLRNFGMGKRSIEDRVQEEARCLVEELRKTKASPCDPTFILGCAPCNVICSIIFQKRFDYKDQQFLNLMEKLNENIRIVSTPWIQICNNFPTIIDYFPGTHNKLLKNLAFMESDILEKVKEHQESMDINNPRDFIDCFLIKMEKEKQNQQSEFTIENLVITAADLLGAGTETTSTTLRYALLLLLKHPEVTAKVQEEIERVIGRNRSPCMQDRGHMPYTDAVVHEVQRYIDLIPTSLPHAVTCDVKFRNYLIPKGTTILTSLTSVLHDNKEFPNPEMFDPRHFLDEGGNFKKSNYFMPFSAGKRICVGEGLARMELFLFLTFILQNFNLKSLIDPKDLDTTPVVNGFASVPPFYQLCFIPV
Sequence of cytochrome P450 2C8 (P10632 whole entry, looked up): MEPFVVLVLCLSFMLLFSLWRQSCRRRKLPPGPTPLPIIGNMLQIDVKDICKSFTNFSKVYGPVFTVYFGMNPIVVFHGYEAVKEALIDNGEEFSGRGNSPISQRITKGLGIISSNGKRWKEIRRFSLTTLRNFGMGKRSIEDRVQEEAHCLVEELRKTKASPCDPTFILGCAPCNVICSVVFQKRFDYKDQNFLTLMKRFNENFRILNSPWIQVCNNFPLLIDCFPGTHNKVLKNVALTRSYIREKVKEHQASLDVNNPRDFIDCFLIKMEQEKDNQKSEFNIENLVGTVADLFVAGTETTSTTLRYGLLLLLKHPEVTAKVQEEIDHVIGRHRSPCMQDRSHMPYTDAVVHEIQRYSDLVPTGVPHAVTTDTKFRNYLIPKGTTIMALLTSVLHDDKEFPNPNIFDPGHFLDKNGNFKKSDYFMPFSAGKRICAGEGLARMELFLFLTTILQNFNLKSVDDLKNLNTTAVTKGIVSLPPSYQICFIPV
T1 sequence (P08246 whole entry, looked up): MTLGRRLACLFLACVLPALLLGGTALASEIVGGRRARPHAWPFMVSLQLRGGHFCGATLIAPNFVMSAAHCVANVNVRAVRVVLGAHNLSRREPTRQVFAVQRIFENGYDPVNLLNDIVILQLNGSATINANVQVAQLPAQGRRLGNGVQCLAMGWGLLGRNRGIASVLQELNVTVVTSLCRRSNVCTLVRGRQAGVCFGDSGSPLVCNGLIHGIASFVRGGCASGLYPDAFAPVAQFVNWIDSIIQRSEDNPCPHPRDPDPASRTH
Sequence of cytochrome P450 2C9 (P11712 whole entry, looked up): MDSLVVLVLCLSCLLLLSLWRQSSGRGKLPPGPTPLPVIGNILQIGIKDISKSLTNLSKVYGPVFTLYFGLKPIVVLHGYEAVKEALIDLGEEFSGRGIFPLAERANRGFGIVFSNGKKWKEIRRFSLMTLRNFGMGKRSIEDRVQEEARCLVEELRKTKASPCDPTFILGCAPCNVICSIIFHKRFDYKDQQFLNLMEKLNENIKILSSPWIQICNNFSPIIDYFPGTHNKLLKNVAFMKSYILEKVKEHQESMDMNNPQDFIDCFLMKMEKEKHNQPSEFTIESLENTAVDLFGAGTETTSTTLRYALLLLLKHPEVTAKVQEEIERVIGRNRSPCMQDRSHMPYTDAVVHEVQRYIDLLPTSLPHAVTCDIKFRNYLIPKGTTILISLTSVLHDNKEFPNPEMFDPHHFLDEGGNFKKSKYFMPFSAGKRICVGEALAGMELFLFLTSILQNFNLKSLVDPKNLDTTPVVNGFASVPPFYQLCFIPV

Compound	IC50 (cytochrome P450 2C9) [µM]	IC50 (cytochrome P450 2C8) [µM]	solubility at 24 h (physchem) [µg/mL]	EC50 (neutrophil elastase [1]) [µM]	inhibition at 10 µM (hERG potassium channel) [%]	IC50 (neutrophil elastase [2]; IC50) [µM]	IC50 (cytochrome P450 2C19) [µM]	Papp A→B at 10 μM (in vitro) [×10⁻⁶ cm/s]	Papp B→A at 10 μM (in vitro) [×10⁻⁶ cm/s]	half-life at 1 μM [3] [h]	predicted hepatic in vivo blood clearance (human hepatocytes)	IC50 (neutrophil elastase [2]; read-out: IC50) [µM]	PEAB (Caco-2 cells) [×10⁻⁶ cm/s]	PEBA (Caco-2 cells) [×10⁻⁶ cm/s]
CN1C(=O)N(c2cccc(C(F)(F)F)c2)C2=C(C(=O)CC2)C1c1ccc(C#N)cc1CO (single isomer, unassigned) [Example A.1A, 3-Hydroxymethyl-4-[3-methyl-2,5-dioxo-1-(3-trifluoromethyl-phenyl)-2,3,4,5,6,7-hexahydro-1H-cyclopentapyrimidin-4-yl]-benzonitrile]	> 50	> 50	58 (≈ 131 µM)	0.002	7	< 0.001	> 50	53	98	–	–	–	–	–
CN1C(=O)N(c2cccc(C(F)(F)F)c2)C2=C(C(=O)CC2)[C@H]1c1ccc(C#N)cc1[S+](C)[O-] (single isomer, unassigned) [Example C.2A, 3-Methanesulfinyl-4-[3-methyl-2,5-dioxo-1-(3-trifluoromethyl-phenyl)-2,3,4,5,6,7-hexahydro-1H-cyclopentapyrimidin-4-yl]-benzonitrile]	> 50	> 50	58 (≈ 122 µM)	0.002	7	–	> 50	–	–	> 2.17	3 % human hepatic blood flow	< 0.001	13	73
CN1C(=O)N(c2cccc(C(F)(F)F)c2)C2=C(C(=O)CC2)[C@H]1c1ccc(C#N)cc1S(=O)(=O)CCO [Example B.1.2B]	> 50	> 50	73 (≈ 141 µM)	0.001	12	< 0.001	> 50	12	120	> 2.17	–	–	–	–
